The test system of one data set is MCF-10A. Briefly: Cytotoxicity against human MCF-10A cells at 1 uM measured after 48 hrs by BrdU colorimetric immunoassay. Format: toxicity, cell-based.
The next data set deals with MDA-MB-231. Briefly: Cytotoxicity against human MDA-MB-231 cells at 1 uM measured after 48 hrs by BrdU colorimetric immunoassay. The note with it: mda-mb-231, 48 h. Format: toxicity, cell-based.
Another data set has as its target T1, Aromatase (Homo sapiens, UniProt P11511).
T1 sequence (P11511 whole entry): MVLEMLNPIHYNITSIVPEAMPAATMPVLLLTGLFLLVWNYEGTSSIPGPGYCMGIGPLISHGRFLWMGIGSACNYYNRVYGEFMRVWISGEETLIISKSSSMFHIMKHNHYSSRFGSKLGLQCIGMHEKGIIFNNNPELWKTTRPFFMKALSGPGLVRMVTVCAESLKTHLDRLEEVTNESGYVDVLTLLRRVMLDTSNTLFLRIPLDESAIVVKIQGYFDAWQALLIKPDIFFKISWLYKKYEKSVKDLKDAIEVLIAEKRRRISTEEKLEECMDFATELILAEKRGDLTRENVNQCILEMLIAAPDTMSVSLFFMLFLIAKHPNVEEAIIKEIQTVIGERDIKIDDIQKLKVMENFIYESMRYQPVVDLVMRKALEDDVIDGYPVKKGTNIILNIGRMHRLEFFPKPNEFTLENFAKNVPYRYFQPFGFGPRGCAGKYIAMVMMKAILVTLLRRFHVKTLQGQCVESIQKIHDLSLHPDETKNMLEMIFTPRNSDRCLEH
Format: cell-based, JEG-3.

A further data set deals with T2, Cytochrome P450 1A2 (Homo sapiens, UniProt P05177).
T2 sequence (P05177 whole entry): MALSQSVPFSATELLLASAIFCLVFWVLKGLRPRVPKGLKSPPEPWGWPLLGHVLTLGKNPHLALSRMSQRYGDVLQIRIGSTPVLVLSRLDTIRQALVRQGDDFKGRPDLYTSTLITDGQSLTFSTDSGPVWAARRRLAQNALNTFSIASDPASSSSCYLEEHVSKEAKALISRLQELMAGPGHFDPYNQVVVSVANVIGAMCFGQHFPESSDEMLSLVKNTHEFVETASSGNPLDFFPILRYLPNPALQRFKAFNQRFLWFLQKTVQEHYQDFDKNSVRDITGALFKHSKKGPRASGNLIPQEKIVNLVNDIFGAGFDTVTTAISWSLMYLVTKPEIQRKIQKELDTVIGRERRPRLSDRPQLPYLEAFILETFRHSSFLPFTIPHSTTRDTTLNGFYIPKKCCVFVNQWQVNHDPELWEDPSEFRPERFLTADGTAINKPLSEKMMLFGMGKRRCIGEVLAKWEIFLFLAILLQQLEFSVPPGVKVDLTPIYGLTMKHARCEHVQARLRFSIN

The target of a further data set is Cytochrome P450 2C9 (Homo sapiens, UniProt P11712).
In a further data set the target is Cytochrome P450 2C19 (Homo sapiens, UniProt P33261).
The target in the next data set is Cytochrome P450 2D6 (Homo sapiens, UniProt P10635).
In a further data set the target is Cytochrome P450 3A4 (Homo sapiens, UniProt P08684).
Cytochrome P450 3A4, sequence (P08684 whole entry): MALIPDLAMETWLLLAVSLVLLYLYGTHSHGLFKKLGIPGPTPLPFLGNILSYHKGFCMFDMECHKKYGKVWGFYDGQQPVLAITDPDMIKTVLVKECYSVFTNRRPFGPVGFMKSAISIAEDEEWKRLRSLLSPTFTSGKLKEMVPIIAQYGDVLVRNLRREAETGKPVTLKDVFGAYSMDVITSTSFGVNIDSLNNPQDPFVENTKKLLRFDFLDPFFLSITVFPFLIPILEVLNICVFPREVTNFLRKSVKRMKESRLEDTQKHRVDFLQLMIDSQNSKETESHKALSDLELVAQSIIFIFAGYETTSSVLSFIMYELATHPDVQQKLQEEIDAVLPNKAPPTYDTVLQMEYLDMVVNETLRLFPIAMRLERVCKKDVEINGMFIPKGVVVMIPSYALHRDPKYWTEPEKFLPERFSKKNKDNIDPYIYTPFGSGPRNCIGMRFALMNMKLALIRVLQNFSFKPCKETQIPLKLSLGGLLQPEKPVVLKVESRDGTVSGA

Cytochrome P450 2D6, sequence (P10635 whole entry): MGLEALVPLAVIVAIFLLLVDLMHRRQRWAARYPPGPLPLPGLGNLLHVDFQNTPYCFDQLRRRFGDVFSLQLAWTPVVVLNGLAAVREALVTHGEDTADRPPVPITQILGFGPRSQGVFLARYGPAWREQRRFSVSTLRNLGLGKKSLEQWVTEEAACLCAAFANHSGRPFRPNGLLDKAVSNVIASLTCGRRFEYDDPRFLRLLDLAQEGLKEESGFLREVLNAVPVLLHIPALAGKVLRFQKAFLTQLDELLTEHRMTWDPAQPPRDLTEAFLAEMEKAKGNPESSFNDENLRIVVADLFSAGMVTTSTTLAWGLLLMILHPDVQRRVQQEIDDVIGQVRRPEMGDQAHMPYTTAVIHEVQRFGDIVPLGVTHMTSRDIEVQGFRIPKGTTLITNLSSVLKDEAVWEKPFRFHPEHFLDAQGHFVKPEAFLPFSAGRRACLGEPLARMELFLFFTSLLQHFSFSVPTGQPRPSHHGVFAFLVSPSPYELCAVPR
Cytochrome P450 2C19, sequence (P33261 whole entry): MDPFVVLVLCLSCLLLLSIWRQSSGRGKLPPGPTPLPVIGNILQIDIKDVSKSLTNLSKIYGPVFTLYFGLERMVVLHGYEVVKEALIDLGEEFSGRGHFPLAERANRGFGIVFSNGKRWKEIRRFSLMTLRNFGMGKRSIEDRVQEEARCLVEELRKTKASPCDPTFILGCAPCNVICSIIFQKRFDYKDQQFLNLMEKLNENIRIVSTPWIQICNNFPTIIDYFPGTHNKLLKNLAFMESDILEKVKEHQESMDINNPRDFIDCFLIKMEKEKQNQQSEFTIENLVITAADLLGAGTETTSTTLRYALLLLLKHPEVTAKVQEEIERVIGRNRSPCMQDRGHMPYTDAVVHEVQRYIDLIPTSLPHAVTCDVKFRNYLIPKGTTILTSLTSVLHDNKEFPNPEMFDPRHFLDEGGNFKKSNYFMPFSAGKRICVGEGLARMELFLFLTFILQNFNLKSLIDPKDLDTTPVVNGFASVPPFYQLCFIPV
Cytochrome P450 2C9, sequence (P11712 whole entry): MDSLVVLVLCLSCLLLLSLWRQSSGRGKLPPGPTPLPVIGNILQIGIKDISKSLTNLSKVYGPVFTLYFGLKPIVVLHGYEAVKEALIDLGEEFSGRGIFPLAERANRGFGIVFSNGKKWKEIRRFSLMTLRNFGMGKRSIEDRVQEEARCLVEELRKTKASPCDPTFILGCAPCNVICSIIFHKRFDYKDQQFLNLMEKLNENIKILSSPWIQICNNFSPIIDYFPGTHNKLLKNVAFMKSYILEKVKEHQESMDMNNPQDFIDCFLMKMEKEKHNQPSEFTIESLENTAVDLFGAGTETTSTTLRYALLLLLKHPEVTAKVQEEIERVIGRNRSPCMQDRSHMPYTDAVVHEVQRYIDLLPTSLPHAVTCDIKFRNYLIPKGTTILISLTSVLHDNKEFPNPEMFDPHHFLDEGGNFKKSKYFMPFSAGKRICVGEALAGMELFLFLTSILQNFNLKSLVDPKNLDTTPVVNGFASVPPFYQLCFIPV

On to `COc1ccc2cc(C(c3ccc(F)cc3)n3cncn3)oc2c1` (stereo not drawn), for which the Activity result with MCF-10A and in the data set with MDA-MB-231 was “Non-Toxic” each time. In the case of `CCC#CCOc1ccc2c(=O)c3ccc(Cn4ccnc4)cc3oc2c1`, the concentration for half-maximal inhibition (IC50) (as a rule, the midpoint of a concentration-inhibition curve) against Aromatase was 0.01 nM. At Aromatase, `CCC#CCOc1cc(Cn2ccnc2)c2oc3ccccc3c(=O)c2c1` yielded a half-inhibitory concentration (IC50) of 0.77 nM. As to `CCC#CCOc1cc(Cn2ccnc2)c2c(=O)c3ccccc3oc2c1`, it took 0.01 nM to reach half-maximal inhibition against Aromatase (IC50). Against the preceding molecule, the IC50 is about 77-fold lower. With `CC#CCOc1ccc2cc(C(c3ccc(F)cc3)n3cncn3)oc2c1` (stereo not drawn), on Aromatase, the IC50 worked out at 4.1 nM.

The molecule `CC#CCOc1ccc2cc(C(c3ccc(Cl)cc3)n3cncn3)oc2c1` (stereo not drawn) returned a half-inhibitory concentration (IC50) on Aromatase of 0.53 nM. This IC50 is about 7.7-fold lower than that of the molecule before. Regarding `Oc1ccc(C(c2cc3cc(Cl)ccc3o2)n2cncn2)cc1` (stereo not drawn), the IC50 against Aromatase came out at 30.3 nM. Regarding `Oc1ccc2cc(C(c3ccc(F)cc3)n3cncn3)oc2c1` (stereo not drawn), inhibition at Aromatase was half-maximal at 0.39 nM (IC50). Further, the Activity result in the data set on MCF-10A and in the data set on MDA-MB-231 was “Non-Toxic” in each case.

At Aromatase, `CCC#CCOc1ccc2cc(C(c3ccc(F)cc3)n3cncn3)oc2c1` (stereo not drawn) showed an IC50 of 0.51 nM. The Activity result in the data set with MCF-10A and in the data set on MDA-MB-231 was “Non-Toxic” throughout. `CCC#CCOc1ccc(C(c2cc3cc(Cl)ccc3o2)n2cncn2)cc1` (stereo not drawn): the half-maximal inhibitory concentration (IC50) against Aromatase was more than 1000 nM. Still for that read-out and setting: the value for `Oc1ccc2oc(C(c3ccc(Cl)cc3)n3cncn3)cc2c1` (stereo not drawn) was 5.67 nM; that for `CCC#CCOc1ccc2cc(C(c3ccc(C#N)cc3)n3cncn3)oc2c1` (stereo not drawn) was 0.72 nM. On Aromatase, `CCOc1ccc2cc(C(c3ccc(Cl)cc3)n3cncn3)oc2c1` (stereo not drawn) returned an IC50 of 0.46 nM. For `COc1ccc(C(c2cc3cc(Cl)ccc3o2)n2cncn2)cc1` (stereo not drawn), the IC50 at Aromatase was more than 1000 nM.

`COc1ccc2oc(C(c3ccc(Cl)cc3)n3cncn3)cc2c1` (stereo not drawn): the IC50 at Aromatase is 2.01 nM.

In the case of `C#CCOc1ccc2cc(C(c3ccc(Cl)cc3)n3cncn3)oc2c1` (stereo not drawn), inhibition against Aromatase was half-maximal at 1.03 nM (IC50).

For `CC#CCOc1ccc2cc(C(c3ccc(C#N)cc3)n3cncn3)oc2c1` (stereo not drawn), the IC50 against Aromatase was 0.09 nM; on Cytochrome P450 1A2, 2880 nM; against Cytochrome P450 2C9 it was more than 25000 nM; against Cytochrome P450 2C19 it was 2170 nM; on Cytochrome P450 2D6 it was more than 25000 nM; against Cytochrome P450 3A4, more than 25000 nM. In addition, the Activity result in the data set with MCF-10A and in the data set on MDA-MB-231 was “Non-Toxic” each time. Take `CCC#CCOc1ccc2oc(C(c3ccc(Cl)cc3)n3cncn3)cc2c1` (stereo not drawn): on Aromatase, 21 nM corresponded to half-maximal inhibition (IC50).

In the case of `CCC#CCOc1ccc2cc(C(c3ccc(Cl)cc3)n3cncn3)oc2c1` (stereo not drawn), the half-inhibitory concentration (IC50) against Aromatase amounted to 2.76 nM. For `COc1cccc2c1C(=O)c1c(O)c3c(c(O)c1C2=O)C[C@@](O)(C(=O)CO)C[C@@H]3O[C@H]1C[C@H](N)[C@H](O)[C@H](C)O1` [DOXORUBICIN], the Activity result in the data set on MCF-10A and with MDA-MB-231 was “Non-Toxic” each time.

The record behind these values is ChEMBL document CHEMBL5113493, “4th generation nonsteroidal aromatase inhibitors: An iterative SAR-guided design, synthesis, and biological evaluation towards picomolar dual binding inhibitors” (Eur J Med Chem, 2022).
